PMC6142691, “Cannabidiol enhances morphine antinociception, diminishes NMDA-mediated seizures and reduces stroke damage via the sigma 1 receptor” (Molecular Brain, 2018)

What was measured:
sigma 1 receptor (σ1R) [1] = target: T1, sigma 1 receptor (σ1R) (Mus musculus, UniProt O55242); assay: biochemical; set-up: gene Sigmar1
sigma 1 receptor (σ1R) [2] = target: T1, sigma 1 receptor (σ1R); assay: in vitro pull-down: reversal of progesterone/CBD-induced disruption of recombinant σ1R-NR1 complex; assay type: biochemical; set-up: gene Sigmar1; murine full-length (1–223) σ1R, recombinant from E. coli, GST-free; with NMDAR NR1 subunit C-terminal region (residues 827–938)
sigma 1 receptor (σ1R) [3] = target: T1, sigma 1 receptor (σ1R); assay: in vitro pull-down: disruption of recombinant σ1R-NR1 complex, immunoblot; assay type: binding; set-up: gene Sigmar1; murine full-length (1–223) σ1R, recombinant from E. coli, GST-free; with NMDAR NR1 subunit C-terminal region (residues 827–938)

T1 sequence (O55242 whole entry, the tested form may be a part): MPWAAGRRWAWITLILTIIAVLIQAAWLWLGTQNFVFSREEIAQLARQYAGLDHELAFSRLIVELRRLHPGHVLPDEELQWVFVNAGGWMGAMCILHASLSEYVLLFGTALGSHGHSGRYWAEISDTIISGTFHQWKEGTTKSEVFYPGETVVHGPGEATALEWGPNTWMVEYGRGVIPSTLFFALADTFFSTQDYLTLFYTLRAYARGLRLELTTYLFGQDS
T1 sequence (P35438 827-938 partner): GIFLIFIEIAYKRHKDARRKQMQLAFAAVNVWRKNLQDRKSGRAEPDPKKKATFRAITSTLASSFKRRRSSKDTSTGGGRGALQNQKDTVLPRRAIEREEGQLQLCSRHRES

Structure (SMILES) | in vitro pull-down: reversal of progesterone/CBD-induced disruption of recombina (sigma 1 receptor (σ1R) [2]) | EC50 (sigma 1 receptor (σ1R) [3]) [nM] | also measured
COC(=O)[C@]1(c2ccc(C)cc2)C[C@@H]1CN1CCC(O)(c2ccccc2)CC1 (racemic) [PPCC] | – | – | Ki (sigma 1 receptor (σ1R) [1]): 0.06 nM
O=C(NC1CCN(Cc2ccccc2)CC1)c1ccc(I)cc1 [4-IBP] | PPCC, PRE084 and 4-IBP did not alter σ1R-NR1 associations but reduced the capacity of progesterone and CBD | – | –
CN1CCN(CCc2ccc(Cl)c(Cl)c2)CC1 [BD1063] | – | ~0.03 | –
C=C(C)[C@@H]1CCC(C)=C[C@H]1c1c(O)cc(CCCCC)cc1O [CBD, Cannabidiol] | – | ~0.1 | –
O=C(OCCN1CCOCC1)C1(c2ccccc2)CCCCC1 [PRE084] | PPCC, PRE084 and 4-IBP did not alter σ1R-NR1 associations but reduced the capacity of progesterone and CBD | – | –
CC(=O)[C@H]1CC[C@H]2[C@@H]3CCC4=CC(=O)CC[C@]4(C)[C@H]3CC[C@]12C [Progesterone] | – | ~0.03 | –
